Results published in patent US7307083B2, “Tetrahydro-acridine and dithiolane derivatives” (priority 2005, dated 2007).
Entries after “also recorded” stand apart in the source; their conditions may differ. Like-named read-outs stand apart in the source and are kept apart here. Marks after values point to notes of the source that are not given here. Square brackets hold non-standard residues; d marks the D form. Peptide text beside a SMILES is read from it. Sta = CC(C)C[C@H](N)[C@@H](O)CC(=O)O

What was measured:
SH-SY5Y cells [1] = test: Intracellular antioxidant activity: ROS formation evoked by t-BuOOH (DCFH-DA probe); assay type: cell-based, human; conditions: for % intracellular ROS: percentage increase of ROS by t-BuOOH, mean±SD of three tests; for effect on ROS formation, in words: 0.1-50 μM for LA and 7, 0.1-5 μM for 15
Protocol: Significant inhibiting effects were obtained with concentrations of 7 or 5 μM (p<0.01), 10 μM and 50 μM (for both p<0.001).
The results are expressed as the percentage increase of intracellular ROS determined by the treatment with tert-butyl hydroperoxide. Data are reported as the mean±SD (standard deviation) of three tests independent of one another (treated against not treated; *p<0.01, **p<0.001). ^btox=cytotoxicity.

anti-NGF mice (AD11) = test: Cholinergic deficit of anti-NGF mice: ChAT immunohistochemistry, cholinergic neurones in the basal forebrain; conditions: i.p., 15 days, doses of Table 6
Protocol: Immunohistochemistry was carried out to show the number of cholinergic neurones in the basal forebrain. For this purpose, sections were incubated with the monoclonal antibody anticholine acetyltransferase (1:500, Chemicon International Inc., Temecula, Calif.).

SH-SY5Y cells [2] = test: Toxic effects, colorimetric MTT assay; assay type: cell-based; conditions: 24 hours; for effect on cellular viability (MTT): 0.1-50 μM
Protocol: The results are expressed as a percentage of cells with respect to the control.
The cellular viability was expressed as a percentage of control cells and calculated by the formula Ft/Fnt×100, where Ft=absorbance of treated neurones and Fnt=absorbance of non treated neurones.
The SH-SY5Y cells were routinely grown at 37° C. in a humidified incubator with 5% CO2 in Dulbecco's modified Eagle's medium supplemented with 10% foetal calf serum (FCS), glutamine 2 mM, penicillin […] and streptomycin 50 μg/mL.

[3] = biological target: human recombinant acetylcholinesterase (AChE or HuAChE) (Homo sapiens, UniProt P22303); test: biochemical; assay type: biochemical
[4] = biological target: T1, AChE-induced Aβ40 aggregation (Homo sapiens, UniProt P22303); test: biochemical; conditions: for inhibition at 100 µM: read-out: % of inhibition ± SEM of AChE-induced Aβ40 aggregation
[5] = biological target: butyrylcholinesterase (BChE) from human serum (Homo sapiens, UniProt P06276); test: biochemical; assay type: biochemical
[6] = biological target: T1, AChE-induced Aβ40 aggregation
human recombinant AChE = human recombinant AChE (Homo sapiens, UniProt P22303); test: Action mechanism and inhibition constant Ki (Lineweaver-Burk method); assay type: biochemical
Excerpt: Determination of the action mechanism and of the inhibition constant (Ki). […] To obtain an estimate of the competitive inhibition constant Ki, the Lineweaver-Burk method was used. […] The data obtained were plotted on a graph according to the Lineweaver-Burk method, that is indicating the reciprocal of the enzymatic velocity (1/v) as a function of the reciprocal of the substrate concentration (1/[ACTh)].

BACE1 (β-secretase) = biological target: T2, BACE1 (β-secretase) (Homo sapiens, UniProt P56817); test: biochemical
T2 construct: host or cells: Baculovirus expression system
Protocol: Assay for the analysis of BACE activity
BACE1 (β-secretase) purified and expressed in Baculovirus in 50 mM Tris HCl (pH=7.5), 10% glycerol (5 Units)
Assay buffer: 50 mM Sodium Acetate, pH=4.5
20 μL of substrate were added to 20 μL of the compound to be tested (or to the buffer if preparing the control well)
To start the reaction, 20 μL of BACE1 enzyme were added to the well.
The mixture was incubated at 37° C. for 60 minutes.
20 μL of the solution were added to stop the reaction. Then the fluorescence signal was read.
BACE activity was measured with a fluorimetric analysis method using a multi-well spectrofluorimeter. The peptide substrate of the analysis mimes the APP protein which is the natural substrate of BACE.
The inhibition curves were obtained for each compound by plotting on a graph the inhibition percentages obtained with respect to the logarithm of the inhibitor concentration. The linear regression parameters were determined and, when possible, the value of IC50 was extrapolated (GraphPad Prism 3.0 GraphPad Software Inc.).
The value of IC50 was calculated using GraphPad Prism software.

[7] = BChE from human serum, mean of two independent measurements, each in duplicate, read-out: IC50 BChE
[8] = human recombinant AChE, mean of two independent measurements, each in duplicate, read-out: IC50 AChE

T2 sequence (P56817 46-501): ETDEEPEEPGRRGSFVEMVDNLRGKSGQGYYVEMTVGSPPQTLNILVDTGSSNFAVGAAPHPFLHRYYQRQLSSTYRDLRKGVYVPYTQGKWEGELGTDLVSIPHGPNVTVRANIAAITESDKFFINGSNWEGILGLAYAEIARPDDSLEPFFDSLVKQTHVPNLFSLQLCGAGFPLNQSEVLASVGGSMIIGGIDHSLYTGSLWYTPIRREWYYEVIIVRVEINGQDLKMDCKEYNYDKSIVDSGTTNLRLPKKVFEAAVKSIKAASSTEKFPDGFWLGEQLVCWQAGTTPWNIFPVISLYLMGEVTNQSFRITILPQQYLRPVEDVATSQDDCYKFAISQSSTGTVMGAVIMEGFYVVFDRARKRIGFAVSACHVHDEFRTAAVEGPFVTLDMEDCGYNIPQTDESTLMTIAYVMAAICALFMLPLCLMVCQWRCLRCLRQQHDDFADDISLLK
butyrylcholinesterase (BChE) from human serum, sequence (P06276 29-602): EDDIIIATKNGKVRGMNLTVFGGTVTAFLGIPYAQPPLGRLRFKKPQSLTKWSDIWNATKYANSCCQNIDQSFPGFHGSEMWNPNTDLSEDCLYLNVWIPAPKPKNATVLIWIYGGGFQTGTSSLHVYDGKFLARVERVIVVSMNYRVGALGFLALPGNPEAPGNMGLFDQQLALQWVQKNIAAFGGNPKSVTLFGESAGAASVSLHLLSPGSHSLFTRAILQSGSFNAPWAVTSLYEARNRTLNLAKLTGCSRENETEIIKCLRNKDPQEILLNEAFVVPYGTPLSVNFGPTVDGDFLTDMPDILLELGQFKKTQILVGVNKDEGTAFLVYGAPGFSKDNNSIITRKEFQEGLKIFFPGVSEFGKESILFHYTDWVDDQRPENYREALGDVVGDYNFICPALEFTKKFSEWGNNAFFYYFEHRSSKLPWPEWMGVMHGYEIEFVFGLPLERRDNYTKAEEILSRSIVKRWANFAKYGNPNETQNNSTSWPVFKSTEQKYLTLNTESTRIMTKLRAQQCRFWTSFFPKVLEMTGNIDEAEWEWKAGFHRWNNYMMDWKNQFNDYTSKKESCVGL
human recombinant acetylcholinesterase (AChE or HuAChE), sequence (P22303 32-614): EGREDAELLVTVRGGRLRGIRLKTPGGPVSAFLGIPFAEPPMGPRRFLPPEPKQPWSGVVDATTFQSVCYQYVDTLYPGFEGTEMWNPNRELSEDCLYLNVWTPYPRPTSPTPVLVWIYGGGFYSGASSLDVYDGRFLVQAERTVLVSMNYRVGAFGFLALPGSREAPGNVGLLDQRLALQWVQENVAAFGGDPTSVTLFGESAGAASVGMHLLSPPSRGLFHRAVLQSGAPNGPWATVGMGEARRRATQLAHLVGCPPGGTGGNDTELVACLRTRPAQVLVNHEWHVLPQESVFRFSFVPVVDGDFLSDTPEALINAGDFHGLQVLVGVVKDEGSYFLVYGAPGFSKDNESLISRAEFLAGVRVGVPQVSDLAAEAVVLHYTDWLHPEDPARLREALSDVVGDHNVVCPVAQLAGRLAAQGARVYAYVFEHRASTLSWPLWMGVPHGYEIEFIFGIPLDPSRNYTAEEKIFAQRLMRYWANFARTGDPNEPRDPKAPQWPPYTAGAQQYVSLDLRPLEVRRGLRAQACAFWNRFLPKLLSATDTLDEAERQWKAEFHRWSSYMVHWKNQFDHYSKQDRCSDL
T1 sequence (P22303 32-614): as above
human recombinant AChE, sequence (P22303 32-614): as above

In the case of `O=C(CCCCC1CCSS1)NCCCNc1c2c(nc3cc(Cl)ccc13)CCCC2` (racemic) [Compound 7, 5-[1,2]dithiolan-3-yl-pentanoic acid [3-(6-chloro-1,2,3,4-tetrahydro-acridin-9-ylamino)-propyl]-amide], the “% intracellular ROS” value (SH-SY5Y cells [1]; 0.1 μM) is reported as 99.50 ± 3.54%, the “% intracellular ROS” value (SH-SY5Y cells [1]; 0.5 μM) is reported as 99.67 ± 7.02% and the “% intracellular ROS” value (SH-SY5Y cells [1]; 1 μM) is reported as 96.67 ± 8.02%. The “% intracellular ROS” value (SH-SY5Y cells [1]; 5 μM) was 82.50 ± 7.78%, the “% intracellular ROS” value (SH-SY5Y cells [1]; 10 μM) was “tox^b” and the “% intracellular ROS” value (SH-SY5Y cells [1]; 50 μM) was “tox^b”. The “effect on ROS formation, in words” value (SH-SY5Y cells [1]) was “inhibiting effect in ROS formation which depended strongly on the concentration”, the “inhibition of ROS formation” value (SH-SY5Y cells [1]; SH-SY5Y, t-BuOOH) was 64% and the “recovery of the cholinergic deficit (number of cholinergic neurones in the basal forebrain)” value (shortened to “recovery of the cholinergic deficit”) (anti-NGF mice (AD11)) was “did not allow the complete recovery of the cholinergic deficit”. For the same compound, the “effect on cellular viability (MTT)” value (SH-SY5Y cells [2]) was “did not lead to variations in cellular viability; also recorded: do not influence cellular vitality”, the IC50 [3] was 0.253 nM and the IC50 [4] was 45000 ± 14600 nM. The inhibition at 100 µM [4] was 61.8 ± 0.8%, the IC50 [5, 7] was 10.8 nM and the “power versus other classic AChE inhibitors approved for AD (AChE-induced Aβ40 aggregation)” value [6] was “significantly more powerful than other classic AChE inhibitors”. For the same compound, the “times less powerful than propidium (AChE-induced Aβ40 aggregation)” value [6] was 3, the Ki (human recombinant AChE) was 0.155 ± 0.046 nM and the “type of inhibition (Lineweaver-Burk)” value (human recombinant AChE) was “mixed type of competitive inhibition”. For the same compound, the IC50 (BACE1 (β-secretase); substrate 250 nM, enzyme 1 U/mL, 60 minutes, 37° C., read-out: IC50 (nM) on BACE) was 69.7 nM.
`O=C(CCCCC1CCSS1)NCCNc1c2c(nc3ccccc13)CCCC2` (stereo not shown) [Compound 1, 5-[1,2]dithiolan-3-yl-pentanoic acid [2-(1,2,3,4-tetrahydro-acridin-9-ylamino)-ethyl]amide] showed an IC50 [3, 8] of 97 nM and an IC50 [5, 7] of 47.5 nM.
`O=C(CCCCC1CCSS1)NCCCNc1c2c(nc3ccccc13)CCCC2` (stereo not shown) [Compound 2, 5-[1,2]dithiolan-3-yl-pentanoic acid [3-(1,2,3,4-tetrahydro-acridin-9-ylamino)propyl]amide] showed an IC50 [3, 8] of 6.96 nM and an IC50 [5, 7] of 12 nM.
Work on `O=C(CCCCC1CCSS1)NCCCCNc1c2c(nc3ccccc13)CCCC2` (stereo not shown) [Compound 3, 5-[1,2]dithiolan-3-yl-pentanoic acid [4-(1,2,3,4-tetrahydro-acridin-9-ylamino)-butyl]amide] yielded an IC50 [3, 8] of 35.2 nM and an IC50 ([5]; read-out: IC50 BChE) of 5.04 nM.
For `O=C(CCCCC1CCSS1)NCCCCCNc1c2c(nc3ccccc13)CCCC2` (stereo not shown) [Compound 4, 5-[1,2]dithiolan-3-yl-pentanoic acid [5-(1,2,3,4-tetrahydro-acridin-9-ylamino)-pentyl]-amide], the IC50 [3, 8] was 38.4 nM and the IC50 ([5]; read-out: IC50 BChE) was 1.48 nM.
For `O=C(CCCCC1CCSS1)NCCCCCCNc1c2c(nc3ccccc13)CCCC2` (stereo not shown) [Compound 5, 5-[1,2]dithiolan-3-yl-pentanoic acid [6-(1,2,3,4-tetrahydro-acridin-9-ylamino)-hexyl]-amide], the IC50 [3, 8] was 30.1 nM and the IC50 [5, 7] was 3.24 nM.
With `O=C(CCCCC1CCSS1)NCCCCCCCNc1c2c(nc3ccccc13)CCCC2` (stereo not shown) [Compound 6, 5-[1,2]dithiolan-3-yl-pentanoic acid [7-(1,2,3,4-tetrahydro-acridin-9-ylamino)-heptyll]-amide] the IC50 [5, 7] was 8.58 nM.
With `Nc1c2c(nc3cc(Cl)ccc13)CC(CNC(=O)CCCCC1CCSS1)CC2` (stereo not shown) [Compound 8, 5-[1,2]dithiolan-3-yl-pentanoic acid (9-Amino-6-chloro-1,2,3,4-tetrahydro-acridin-3-ylmethyl)-amide] the IC50 [3, 8] was 232 nM.
With `NCCCNc1c2c(nc3cc(Cl)ccc13)CCCC2` [Compound 15, N^1-(6-chloro-1,2,3,4-tetrahydro-acridin-9-yl)-propane-1,3-diamine] the “% intracellular ROS” value (SH-SY5Y cells [1]; 0.1 μM) was 88.75 ± 8.41%, the “% intracellular ROS” value (SH-SY5Y cells [1]; 0.5 μM) was 95.00 ± 5.20% and the “% intracellular ROS” value (SH-SY5Y cells [1]; 1 μM) was 77.00 ± 8.76%. For the same compound, the “% intracellular ROS” value (SH-SY5Y cells [1]; 5 μM) was 61.67 ± 9.02* %, the “% intracellular ROS” value (SH-SY5Y cells [1]; 10 μM) was 51.25 ± 9.21** % and the “% intracellular ROS” value (SH-SY5Y cells [1]; 50 μM) was 30.50 ± 9.04** %. For the same compound, the “effect on ROS formation, in words” value (SH-SY5Y cells [1]) was “did not show any difference as regards ROS formation”, the “decrease of cellular viability” value (SH-SY5Y cells [2]; 10 μM) was 88% and the “decrease of cellular viability” value (SH-SY5Y cells [2]; 50 μM) was 99%. The “effect on cellular viability (MTT)” value (SH-SY5Y cells [2]) was “has a neurotoxic effect”, the IC50 ([3]; read-out: IC50 AChE) was 21.5 nM and the inhibition at 100 µM [4] was 25 ± 5%.
In the case of `CCN(CCCCCCNC(=O)CCCCC1CCSS1)Cc1ccccc1OC` (stereo not shown) [Compound 18, 5-[1,2]dithiolan-3-yl-pentanoic acid {6-[Ethyl-(2-methoxy-benzyl)-amino]-hexyl}-amide], the “recovery of the cholinergic deficit” value (anti-NGF mice (AD11)) is reported as “significant recovery”, the IC50 [3, 8] is reported as 256 nM and the inhibition at 100 µM [4] is reported as 16.8 ± 2.2%. It also gave an IC50 [5, 7] of 2490 nM.
For `CC(c1cccc(OCCCNC(=O)CCCCC2CCSS2)c1)N(C)C` (stereo not shown) [Compound 19, 5-[1,2]dithiolan-3-yl-pentanoic acid {3-[3-(1-dimethylamino-ethyl)-phenoxy]-propyl}-amide], the “recovery of the cholinergic deficit” value (anti-NGF mice (AD11)) was “did not allow the complete recovery of the cholinergic deficit”, the IC50 [3, 8] was 25200 nM and the inhibition at 100 µM [4] was 9 ± 6.6%. The IC50 [5] was 82400 nM.
For `COc1cccc(C(C)N(C)CCCNC(=O)CCCCC2CCSS2)c1` (stereo not shown) [Compound 20, 5-[1,2]dithiolan-3-yl-pentanoic acid (3-{[1-(3-methoxy-phenyl)-ethyl]-methyl-amino}-propyl)-amide], the “recovery of the cholinergic deficit” value (anti-NGF mice (AD11)) was “did not allow the complete recovery of the cholinergic deficit”, the IC50 [3, 8] was 74100 nM and the inhibition at 100 µM [4] was 15.6 ± 7.8%. The IC50 [5, 7] was 398 nM.
`O=C(CCCCc1cccs1)NCCCNc1c2c(nc3cc(Cl)ccc13)CCCC2` [Compound 21, 5-thiofen-2-yl-pentanoic acid [3-(6-chloro-1,2,3,4-tetrahydro-acridin-9-ylamino)-propyl]-amide] gave an IC50 [3] of 2.66 nM, an inhibition at 100 µM [4] of 24.1 ± 5.7% and an IC50 [5, 7] of 30.6 nM.
Compound `COc1cc2nc(Cl)nc(NCCCNC(=O)CCCCC3CCSS3)c2cc1OC` (stereo not shown) [Compound 23, 5-[1,2]dithiolan-3-yl-pentanoic acid [3-(2-chloro-6,7-dimethoxy-chinazoline-4-ylamino)-propyl]-amide] has an IC50 [3] of 192000 nM and an inhibition at 100 µM [4] of 32.1 ± 3.9%.
With `O=C(CCCC[C@@H]1CCSS1)NCCCNc1c2c(nc3cc(Cl)ccc13)CCCC2` [Compound 24] the IC50 [3] was 0.23 nM, the inhibition at 100 µM [4] was 68 ± 3% and the “power versus other classic AChE inhibitors approved for AD (AChE-induced Aβ40 aggregation)” value [6] was “significantly more powerful than other classic AChE inhibitors”.
`COc1ccc2c3c1O[C@H]1C[C@@H](O)C=C[C@@]31CCN(C)C2` [Galantamine] was tested, and the IC50 (BACE1 (β-secretase)) was > 5000 nM.
`O=C(O)CCCCC1CCSS1` (stereo not shown) [LA, lipoic acid, reference compound] was tested, and the “recovery of the cholinergic deficit” value (anti-NGF mice (AD11)) was “did not allow the complete recovery of the cholinergic deficit” and the “% of inhibition ± SEM of AChE-induced Aβ40 aggregation” value ([6]; compound 100 μM) was <5%.
With `CCN(C)C(=O)Oc1cccc([C@H](C)N(C)C)c1` [Rivastigmine] the IC50 (BACE1 (β-secretase)) was > 3000 nM.
With `Nc1c2c(nc3ccccc13)CCCC2` [Tacrine, reference compound] the “recovery of the cholinergic deficit” value (anti-NGF mice (AD11)) was “did not allow the complete recovery of the cholinergic deficit” and the IC50 (BACE1 (β-secretase)) was > 4000 nM.
`CC[C@H](C)[C@H](NC(=O)[C@H](CCC(=O)O)NC(=O)[C@H](CCC(=O)O)NC(=O)[C@@H](NC(=O)[C@@H](N)CCCCN)[C@@H](C)O)C(=O)N[C@@H](CO)C(=O)N[C@@H](CCC(=O)O)C(=O)N[C@H](C(=O)N[C@@H](CC(N)=O)C(=O)N[C@@H](CC(C)C)[C@@H](O)CC(=O)N[C@H](C(=O)N[C@@H](C)C(=O)N[C@@H](CCC(=O)O)C(=O)N[C@@H](Cc1ccccc1)C(=O)O)C(C)C)C(C)C` [peptide derivative of statin] (H-KTEEISEVN[Sta]VAEF-OH) showed an IC50 (BACE1 (β-secretase)) of 18 nM.
